Article PMC3943356 (Bioorganic & medicinal chemistry letters, 2013)
Structures can show the parent of a compound that is named as a salt. Where two headings read alike, the source gives them in different places.

How the values were obtained:
VGLUT [1] = target: VGLUT
VGLUT [2] = assay: Inhibition of 3H-L-Glu uptake into synaptic vesicles prepared from rat brain; conditions: for reduction (block) of L-Glu uptake: compound at 250 µM, 3H-L-Glu 250 µM
NMDA receptor = conditions: cited from earlier work
AMPA receptors = conditions: cited from earlier work
KA receptors = conditions: cited from earlier work
VGLUT [3] = conditions: read-out: Ki at VGLUT; cited from earlier work

Compound: O=C(O)c1cc(C(=O)O)c2c(ccc3cc4ccccc4cc32)n1 [5,6-NQDC, Naphtho[2,3-f]quinoline-1,3-dicarboxylic acid]
- Ki (VGLUT [1]): ~60 µM
- reduction (block) of L-Glu uptake (VGLUT [2]): over 80%

Compound: O=C(O)c1cc(C(=O)O)c2ccc3cc4ccccc4cc3c2n1 [7,8-NQDC, Naphtho[2,3-h]quinoline-2,4-dicarboxylic acid]
- Ki (VGLUT [1]): ~60 µM
- reduction (block) of L-Glu uptake (VGLUT [2]): similarly effective

Compound: C[C@]12CC[C@@H]3c4ccc(OC(=O)CCC(=O)O)cc4CC[C@H]3[C@@H]1CCC2=O [Estrone hemisuccinate]
- reduction (block) of L-Glu uptake (VGLUT [2]): inactive

Compound: C[C@]12CC[C@@H]3c4ccc(O)cc4CC[C@H]3[C@@H]1CCC2=O [Estrone]
- reduction (block) of L-Glu uptake (VGLUT [2]): did not block L-Glu uptake to any appreciable level

Compound: N[C@@H](CCC(=O)O)C(=O)O [L-Glu, Glutamate]
- Km (VGLUT [2]; read-out: Km of L-Glu uptake, Lineweaver-Burk plot, Fig. 3): 2500 µM

Compound: CC(=O)[C@H]1CC[C@H]2[C@@H]3CC[C@@H]4C[C@@H](OS(=O)(=O)O)CC[C@]4(C)[C@H]3CC[C@]12C [Pregnanolone sulfate]
- effect on NMDA receptor (NMDA receptor): inhibits
- effect on AMPA receptors (AMPA receptors): inhibits
- effect on KA receptors (KA receptors): inhibits
- activity relative to the endogenous substrate L-Glu (VGLUT [2]): approximately 100 fold
- mechanism of inhibition (VGLUT [2]; Lineweaver-Burk plot, increase in Km,app, no change in Vmax): competitive inhibition
- reduction (block) of L-Glu uptake (VGLUT [2]): 85%

Compound: CC(=O)[C@H]1CC[C@H]2[C@@H]3CC=C4C[C@@H](O)CC[C@]4(C)[C@H]3CC[C@]12C [Pregnenolone]
- reduction (block) of L-Glu uptake (VGLUT [2]): did not block L-Glu uptake to any appreciable level

Compound: CC(C)CC1C(=O)N2CCCC2C2(O)OC(NC(=O)C3C=C4c5cccc6[nH]c(Br)c(c56)CC4N(C)C3)(C(C)C)C(=O)N12 (centres unmarked) [bromocryptine]
- Ki (VGLUT [3]): ~22 µM

Compound: Pregnenolone sulfate
- effect on NMDA receptor (NMDA receptor): potentiate
- reduction (block) of L-Glu uptake (VGLUT [2]): 70%
